These results are taken from PMC8631710, “Structure-Based Design of Selective Fat Mass and Obesity Associated Protein (FTO) Inhibitors” (Journal of Medicinal Chemistry, 2021).

The IC50 is the concentration that gives 50% inhibition. The term melting point denotes the temperature of the solid-liquid transition.

One series addresses T1, KDM3A (Homo sapiens, UniProt Q9Y4C1).
T1 sequence (Q9Y4C1 1-1321): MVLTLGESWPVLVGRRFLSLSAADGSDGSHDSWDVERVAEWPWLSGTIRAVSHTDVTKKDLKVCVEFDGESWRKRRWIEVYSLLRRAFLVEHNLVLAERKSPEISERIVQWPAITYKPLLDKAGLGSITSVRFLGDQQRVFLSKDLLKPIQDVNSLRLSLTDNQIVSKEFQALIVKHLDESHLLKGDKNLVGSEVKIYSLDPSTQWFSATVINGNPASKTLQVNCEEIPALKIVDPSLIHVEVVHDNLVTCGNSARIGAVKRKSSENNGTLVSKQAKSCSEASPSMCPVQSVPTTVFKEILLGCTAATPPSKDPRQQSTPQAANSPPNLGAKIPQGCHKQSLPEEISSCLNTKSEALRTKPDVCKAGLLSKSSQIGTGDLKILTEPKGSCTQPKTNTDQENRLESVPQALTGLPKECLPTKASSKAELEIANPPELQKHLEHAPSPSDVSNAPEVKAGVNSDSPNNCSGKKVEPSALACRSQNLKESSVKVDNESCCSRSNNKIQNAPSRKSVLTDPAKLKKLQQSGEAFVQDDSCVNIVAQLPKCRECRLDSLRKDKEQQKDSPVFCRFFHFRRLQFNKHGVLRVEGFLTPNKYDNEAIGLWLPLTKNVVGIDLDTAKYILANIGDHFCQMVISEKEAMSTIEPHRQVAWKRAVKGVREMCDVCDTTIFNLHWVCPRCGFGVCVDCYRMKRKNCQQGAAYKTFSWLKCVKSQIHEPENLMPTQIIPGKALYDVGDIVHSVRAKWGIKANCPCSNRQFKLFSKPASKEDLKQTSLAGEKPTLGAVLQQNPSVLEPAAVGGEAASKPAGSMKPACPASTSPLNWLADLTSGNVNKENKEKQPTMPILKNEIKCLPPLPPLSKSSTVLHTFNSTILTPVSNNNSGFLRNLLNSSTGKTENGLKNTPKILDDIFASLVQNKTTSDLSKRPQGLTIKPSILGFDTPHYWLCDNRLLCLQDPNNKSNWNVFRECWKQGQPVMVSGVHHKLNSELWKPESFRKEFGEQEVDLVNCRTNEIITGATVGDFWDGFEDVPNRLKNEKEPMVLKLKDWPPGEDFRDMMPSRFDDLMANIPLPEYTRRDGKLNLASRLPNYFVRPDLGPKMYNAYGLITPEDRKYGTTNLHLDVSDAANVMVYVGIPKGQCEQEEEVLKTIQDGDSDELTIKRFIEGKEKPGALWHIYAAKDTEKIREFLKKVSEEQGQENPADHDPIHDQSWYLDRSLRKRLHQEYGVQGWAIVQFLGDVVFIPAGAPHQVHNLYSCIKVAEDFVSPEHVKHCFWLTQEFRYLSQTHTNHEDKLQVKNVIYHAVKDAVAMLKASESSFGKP
Description: histone demethylase luminescence-based AlphaScreen assay, KDM3A. Particulars: KDM3A 0.25 nM, 95% confidence limits printed in parentheses, read-out: IC50 against KDM3A. In kind it is biochemical. As to the method:
(§1) PHD2, FIH, […] inhibition assays were performed using a solid-phase extraction–mass spectrometry-based methods as described.[34] KDM inhibition assays were performed using an AlphaScreen-based assay as described.[35]
In general terms: Bead proximity is the source of the signal in Alpha formats.

In another series the target is KDM6B (Homo sapiens, UniProt O15054). The series can be described thus: histone demethylase luminescence-based AlphaScreen assay, KDM6B. In kind it is biochemical. The settings on record: KDM6B 0.1 nM, 95% confidence limits printed in parentheses, read-out: IC50 against KDM6B. As to the method: as §1
Chain of KDM6B (O15054 whole entry): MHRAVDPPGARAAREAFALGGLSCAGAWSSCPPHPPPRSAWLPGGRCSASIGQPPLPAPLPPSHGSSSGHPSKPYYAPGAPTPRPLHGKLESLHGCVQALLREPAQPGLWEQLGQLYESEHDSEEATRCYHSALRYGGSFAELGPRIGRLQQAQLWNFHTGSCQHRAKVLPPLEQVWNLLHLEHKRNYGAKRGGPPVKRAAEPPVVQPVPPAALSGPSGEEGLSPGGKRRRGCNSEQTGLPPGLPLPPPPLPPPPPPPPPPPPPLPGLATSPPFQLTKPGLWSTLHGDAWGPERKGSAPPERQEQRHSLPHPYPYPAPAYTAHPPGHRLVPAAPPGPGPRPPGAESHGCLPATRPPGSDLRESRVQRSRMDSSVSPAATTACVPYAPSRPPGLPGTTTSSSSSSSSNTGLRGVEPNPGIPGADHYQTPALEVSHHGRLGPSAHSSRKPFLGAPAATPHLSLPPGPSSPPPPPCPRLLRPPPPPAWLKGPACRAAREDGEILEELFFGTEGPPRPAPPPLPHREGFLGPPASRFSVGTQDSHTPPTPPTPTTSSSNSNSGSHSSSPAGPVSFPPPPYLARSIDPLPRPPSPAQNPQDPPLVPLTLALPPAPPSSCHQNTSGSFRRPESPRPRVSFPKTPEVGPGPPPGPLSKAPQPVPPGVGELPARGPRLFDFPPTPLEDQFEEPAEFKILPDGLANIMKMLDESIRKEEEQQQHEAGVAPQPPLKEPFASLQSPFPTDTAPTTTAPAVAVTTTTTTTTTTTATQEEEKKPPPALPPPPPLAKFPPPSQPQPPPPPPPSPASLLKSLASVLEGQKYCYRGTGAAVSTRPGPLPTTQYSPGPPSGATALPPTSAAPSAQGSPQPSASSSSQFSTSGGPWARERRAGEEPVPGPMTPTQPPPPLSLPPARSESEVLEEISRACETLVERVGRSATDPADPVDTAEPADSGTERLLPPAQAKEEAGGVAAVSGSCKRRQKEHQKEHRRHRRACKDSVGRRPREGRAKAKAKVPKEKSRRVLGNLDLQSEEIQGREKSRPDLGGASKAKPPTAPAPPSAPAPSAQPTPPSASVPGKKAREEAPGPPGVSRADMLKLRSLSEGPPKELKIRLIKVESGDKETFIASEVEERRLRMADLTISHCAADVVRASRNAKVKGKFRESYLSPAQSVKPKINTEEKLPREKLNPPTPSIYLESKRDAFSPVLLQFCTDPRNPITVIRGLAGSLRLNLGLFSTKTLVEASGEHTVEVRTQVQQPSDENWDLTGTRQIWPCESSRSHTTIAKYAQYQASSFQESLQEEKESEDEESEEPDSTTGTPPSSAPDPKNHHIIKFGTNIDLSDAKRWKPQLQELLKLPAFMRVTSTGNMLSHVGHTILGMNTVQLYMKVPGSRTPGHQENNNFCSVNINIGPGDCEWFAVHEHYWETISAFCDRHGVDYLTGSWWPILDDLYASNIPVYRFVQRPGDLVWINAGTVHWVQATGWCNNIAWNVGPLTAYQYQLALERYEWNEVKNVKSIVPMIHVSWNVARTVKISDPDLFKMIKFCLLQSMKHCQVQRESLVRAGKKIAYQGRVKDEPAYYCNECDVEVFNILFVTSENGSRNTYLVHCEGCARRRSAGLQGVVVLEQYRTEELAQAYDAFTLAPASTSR
In another series the target is KDM5B (Homo sapiens, UniProt Q9UGL1). The series can be described thus: histone demethylase luminescence-based AlphaScreen assay, KDM5B. In kind it is biochemical. Particulars: KDM5B 2.0 nM, 95% confidence limits printed in parentheses, read-out: IC50 against KDM5B. As to the method:
as §1

The target of another series is T2, KDM2A (Homo sapiens, UniProt Q9Y2K7).
T2 sequence (Q9Y2K7 1-1162): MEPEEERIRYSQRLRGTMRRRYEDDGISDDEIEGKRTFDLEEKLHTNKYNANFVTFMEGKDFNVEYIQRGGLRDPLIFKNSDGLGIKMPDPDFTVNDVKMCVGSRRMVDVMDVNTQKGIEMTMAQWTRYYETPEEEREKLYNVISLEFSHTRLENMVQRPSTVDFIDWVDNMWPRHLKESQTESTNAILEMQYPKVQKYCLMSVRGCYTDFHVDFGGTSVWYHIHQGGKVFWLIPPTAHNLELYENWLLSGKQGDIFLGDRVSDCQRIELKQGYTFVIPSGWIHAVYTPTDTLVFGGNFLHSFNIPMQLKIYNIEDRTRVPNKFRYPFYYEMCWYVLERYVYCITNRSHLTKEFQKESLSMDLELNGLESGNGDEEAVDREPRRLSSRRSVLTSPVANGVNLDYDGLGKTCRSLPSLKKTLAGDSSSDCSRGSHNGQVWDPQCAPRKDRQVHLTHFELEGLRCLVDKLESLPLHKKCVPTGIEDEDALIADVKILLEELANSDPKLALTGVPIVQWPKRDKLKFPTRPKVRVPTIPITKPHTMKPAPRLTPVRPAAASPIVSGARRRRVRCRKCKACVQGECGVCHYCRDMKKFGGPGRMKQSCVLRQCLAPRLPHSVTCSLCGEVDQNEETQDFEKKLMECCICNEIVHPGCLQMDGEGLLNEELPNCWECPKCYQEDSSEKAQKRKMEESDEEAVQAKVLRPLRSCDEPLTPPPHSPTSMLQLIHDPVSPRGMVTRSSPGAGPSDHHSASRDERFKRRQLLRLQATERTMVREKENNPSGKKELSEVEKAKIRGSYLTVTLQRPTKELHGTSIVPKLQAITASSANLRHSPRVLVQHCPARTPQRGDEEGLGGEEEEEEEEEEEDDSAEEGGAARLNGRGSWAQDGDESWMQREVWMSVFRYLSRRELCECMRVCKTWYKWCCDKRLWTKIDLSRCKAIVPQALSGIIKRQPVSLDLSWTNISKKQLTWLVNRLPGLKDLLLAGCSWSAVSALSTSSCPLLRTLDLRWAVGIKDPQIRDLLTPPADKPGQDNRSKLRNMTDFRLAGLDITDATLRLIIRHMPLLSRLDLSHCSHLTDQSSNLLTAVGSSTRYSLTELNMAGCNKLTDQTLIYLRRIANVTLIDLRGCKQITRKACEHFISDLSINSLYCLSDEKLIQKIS
Description: histone demethylase luminescence-based AlphaScreen assay, KDM2A. In kind it is biochemical. Particulars: KDM2A 25 nM, 95% confidence limits printed in parentheses, read-out: IC50 against KDM2A. As to the method:
as §1

The next series has as its target FTO (Homo sapiens, UniProt Q9C0B1). The series can be described thus: SPE-MS-based hydroxylation assay using a 15-mer m6A RNA oligonucleotide. Further details: encoding for N-terminally hexahistidine-tagged full-length human FTO without the thrombin cleavage site; made in house; host or cells: Escherichia coli BL21 (DE3). The settings on record: for IC50: FTO 100 nM, footnote b, read-out: IC50 against FTO (SPE-MS-based assay, 15-mer m6A RNA); for fold difference (higher IC50 / lower potency) relative to 14a: SPE-MS IC50 values. In kind it is biochemical.

Chain of KDM5B (Q9UGL1 whole entry): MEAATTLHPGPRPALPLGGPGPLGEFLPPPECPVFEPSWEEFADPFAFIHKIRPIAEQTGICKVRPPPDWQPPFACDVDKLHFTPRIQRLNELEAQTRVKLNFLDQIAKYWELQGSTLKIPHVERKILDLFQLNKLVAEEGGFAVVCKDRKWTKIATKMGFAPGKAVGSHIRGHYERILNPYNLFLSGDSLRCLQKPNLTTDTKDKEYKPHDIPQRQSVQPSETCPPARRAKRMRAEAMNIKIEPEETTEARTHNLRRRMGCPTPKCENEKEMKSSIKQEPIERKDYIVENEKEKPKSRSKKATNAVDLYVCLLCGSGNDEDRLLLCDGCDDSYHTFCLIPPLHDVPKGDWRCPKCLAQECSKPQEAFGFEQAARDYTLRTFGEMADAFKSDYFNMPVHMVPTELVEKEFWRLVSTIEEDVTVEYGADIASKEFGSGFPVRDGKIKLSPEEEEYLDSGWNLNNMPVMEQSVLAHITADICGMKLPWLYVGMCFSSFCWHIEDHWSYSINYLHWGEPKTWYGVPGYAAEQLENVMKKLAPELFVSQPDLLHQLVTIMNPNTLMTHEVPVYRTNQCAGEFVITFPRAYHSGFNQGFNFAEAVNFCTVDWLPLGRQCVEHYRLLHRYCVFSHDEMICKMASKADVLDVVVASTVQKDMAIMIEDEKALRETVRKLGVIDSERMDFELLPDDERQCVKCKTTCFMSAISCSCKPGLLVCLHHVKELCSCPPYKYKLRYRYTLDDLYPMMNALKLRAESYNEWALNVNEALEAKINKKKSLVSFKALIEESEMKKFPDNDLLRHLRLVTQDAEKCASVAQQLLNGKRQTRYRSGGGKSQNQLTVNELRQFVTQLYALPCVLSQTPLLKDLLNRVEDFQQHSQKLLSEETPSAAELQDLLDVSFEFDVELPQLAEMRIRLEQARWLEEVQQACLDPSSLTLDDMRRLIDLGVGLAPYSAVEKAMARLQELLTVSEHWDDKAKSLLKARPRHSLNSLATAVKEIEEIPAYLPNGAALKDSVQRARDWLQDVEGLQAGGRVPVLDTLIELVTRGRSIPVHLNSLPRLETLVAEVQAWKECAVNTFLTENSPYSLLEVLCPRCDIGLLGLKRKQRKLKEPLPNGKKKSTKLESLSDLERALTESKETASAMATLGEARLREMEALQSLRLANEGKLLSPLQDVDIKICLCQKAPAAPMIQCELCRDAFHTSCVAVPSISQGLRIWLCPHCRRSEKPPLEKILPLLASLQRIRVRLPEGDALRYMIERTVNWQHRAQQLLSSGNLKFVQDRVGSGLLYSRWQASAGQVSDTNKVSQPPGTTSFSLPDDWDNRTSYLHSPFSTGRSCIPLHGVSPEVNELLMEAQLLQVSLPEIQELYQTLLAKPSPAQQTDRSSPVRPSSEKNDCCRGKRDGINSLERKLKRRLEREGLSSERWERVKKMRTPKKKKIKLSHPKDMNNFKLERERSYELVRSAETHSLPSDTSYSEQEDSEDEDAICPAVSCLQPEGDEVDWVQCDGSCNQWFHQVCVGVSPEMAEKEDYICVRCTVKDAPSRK
Chain of FTO (Q9C0B1 whole entry): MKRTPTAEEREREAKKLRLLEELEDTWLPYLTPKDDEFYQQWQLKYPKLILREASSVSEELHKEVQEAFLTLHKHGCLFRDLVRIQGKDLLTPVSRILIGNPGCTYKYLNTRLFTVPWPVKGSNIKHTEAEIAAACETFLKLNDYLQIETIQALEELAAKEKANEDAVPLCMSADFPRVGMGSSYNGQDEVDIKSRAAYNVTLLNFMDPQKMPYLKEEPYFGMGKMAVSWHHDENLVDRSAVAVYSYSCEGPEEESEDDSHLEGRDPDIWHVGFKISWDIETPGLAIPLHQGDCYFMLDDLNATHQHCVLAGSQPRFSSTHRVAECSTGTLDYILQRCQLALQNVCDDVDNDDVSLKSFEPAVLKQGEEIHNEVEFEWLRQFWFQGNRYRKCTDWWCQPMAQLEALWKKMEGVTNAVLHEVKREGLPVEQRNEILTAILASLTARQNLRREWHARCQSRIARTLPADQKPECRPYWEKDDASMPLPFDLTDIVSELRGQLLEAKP
Description for FTO: For assays using solid-phase extraction mass spectrometry (SPE-MS) with a 15-mer ssRNA oligonucleotide substrate [AUUGUGG(m^6A)CUGCAGC], a 25 μL of reaction mixture was added 200 μM ascorbic acid; 1 μM 2OG; 0.5 μM (NH4)2Fe(SO4)2·6H2O; 25 mM Tris, pH 7.5; 0.6 μM 15-mer ssRNA substrate; and 0.1 μM FTO, with a range of compound concentrations (3, 10, 30, 100, and 300 nM, 1, 3, 10, 30, and 100 μM). […] The samples were aspirated under vacuum for 0.6 s and loaded onto a C-8 reverse phase solid-phase extraction (SPE) cartridge. […] The hydroxylated product [AUUGUGG(hm^6A)CUGCAGC] and the substrate [AUUGUGG(m^6A)CUGCAGC] were eluted from the SPE cartridge with 6 mM OAA 80/20v/v acetonitrile/water into a mass spectrometer (5.5 s, 1.5 mL/min). The SPE cartridge re-equilibrated with 6 mM OAA in water (0.5 s, 1.5 mL/min). […] Signal intensities were quantified as the total ion count and analyzed using RapidFire Integrator software (Agilent). Percentage hydroxylation was calculated by comparing the ion intensities of m/z peaks corresponding to [M – H]^3– to [M + OH]^3–: % hydroxylation = 100 × (product)/(substrate + product). IC50 values were calculated from the dose–response curves plotted using GraphPad Prism 5.

Regarding `CN(C)C(=O)c1ccc(Nc2ccc(O)c(C(=O)NCC(=O)O)n2)cc1` [14i, 6-(((4-(Dimethylcarbamoyl)phenyl)amino)-3-hydroxypicolinoyl)glycine], the melting point was more than 300 °C. The IC50 at KDM3A is more than 100 µM. In addition, the IC50 on KDM6B is more than 100 µM. Moreover, the IC50 on KDM5B was 53.4 µM. Besides, the 50% inhibitory concentration (IC50) at KDM2A is more than 100 µM. Besides, at FTO, the IC50 was 1.4 ± 0.7 µM and the “fold difference (higher IC50 / lower potency) relative to 14a” value is given as approximately 18 fold.

The molecule `O=C(O)CNC(=O)c1nc(-c2cccc3ccccc23)ccc1O` [13c, N-((3-Hydroxy-6-(naphthalen-1-yl)pyridin-2-yl)carbonyl)glycine] had a melting point of 179 to 182 °C. In addition, the IC50 on KDM3A is more than 100 µM. Besides, the IC50 at KDM6B worked out at 76.4 µM. In addition, the IC50 at KDM5B is more than 100 µM. The half-inhibitory concentration (IC50) on KDM2A was more than 100 µM.

Molecule `O=C(O)CNC(=O)c1nc(Nc2ccc([N+](=O)[O-])cn2)ccc1O` [14b, 3-Hydroxy-6-(((5-nitropyridin-2-yl)amino)picolinoyl)glycine] yielded a melting point of more than 300 °C. Besides, the IC50 at KDM3A was determined as 41.9 µM. The IC50 at KDM6B was 38.4 µM. In addition, the IC50 at KDM5B was found to be 87.8 µM. The concentration for half-maximal inhibition (IC50) at KDM2A was more than 100 µM. Moreover, on FTO, the IC50 was 0.33 ± 0.05 µM and the “fold difference (higher IC50 / lower potency) relative to 14a” value amounted to 4 fold.

Take `O=C(O)/C=C/C(=O)NNC(=O)c1cnccc1Cc1ccccc1` [compound 15, (E)-4-(2-(4-Benzylnicotinoyl)hydrazineyl)-4-oxobut-2-enoic Acid, reference compound]: the IC50 on KDM3A amounted to 0.4 µM; on KDM6B it was 13.7 µM; at KDM5B, 83.9 µM; on KDM2A, 0.063 µM.

On to `Nc1ccc(Nc2ccc(O)c(C(=O)NCC(=O)O)n2)cc1` [14c, 6-(((4-Aminophenyl)amino)-3-hydroxypicolinoyl)glycine], for which the melting point is more than 300 °C. Besides, on KDM3A, the IC50 amounted to 52 µM. Also, the IC50 on KDM6B came out at 89.7 µM. In addition, the IC50 on KDM5B worked out at 63.1 µM. Besides, the half-maximal inhibitory concentration (IC50) at KDM2A is more than 100 µM.

With `O=C(O)CNC(=O)c1nc(-c2ccccc2-c2ccccc2)ccc1O` [13b, N-((6-(Biphenyl-2-yl)-3-hydroxypyridin-2-yl)carbonyl)glycine], the concentration for half-maximal inhibition (IC50) at KDM3A turned out to be 13 µM; at KDM6B it was 39.7 µM; on KDM5B, 88.8 µM; on KDM2A, 50.2 µM.

Regarding `O=C(O)CNC(=O)c1nc(-c2cccc3ncccc23)ccc1O` [13d, N-((3-Hydroxy-6-(quinolin-5-yl)pyridin-2-yl)carbonyl)glycine], the IC50 at KDM3A was more than 100 µM; on KDM6B it was more than 100 µM; on KDM5B it was 40.5 µM; at KDM2A, 84 µM.

Take `CNC(=O)c1ccc(Nc2ccc(O)c(C(=O)NCC(=O)O)n2)cc1` [14h, 3-Hydroxy-6-(((4-(methylcarbamoyl)phenyl)amino)picolinoyl)glycine]: the melting point is more than 300 °C. The IC50 on KDM3A was found to be 69.4 µM. Also, the 50% inhibitory concentration (IC50) at KDM6B came to 47.8 µM. In addition, the IC50 on KDM5B was determined as 17.7 µM. At KDM2A, the IC50 is more than 100 µM. Moreover, on FTO, the IC50 was determined as 0.43 ± 0.09 µM and the “fold difference (higher IC50 / lower potency) relative to 14a” value was approximately 5 fold.

For the molecule `COC(=O)c1ccc(Nc2ccc(O)c(C(=O)NCC(=O)O)n2)cc1` [14g, 3-Hydroxy-6-(((4-(methoxycarbonyl)phenyl)amino)picolinoyl)glycine], the melting point lay within 264 to 267 °C. The half-inhibitory concentration (IC50) at KDM3A was more than 100 µM. In addition, at KDM6B, the IC50 is 89.7 µM. In addition, the concentration for half-maximal inhibition (IC50) on KDM5B was more than 100 µM. Further, the half-inhibitory concentration (IC50) at KDM2A was more than 100 µM. Moreover, at FTO, the IC50 was found to be 0.9 ± 0.7 µM and the “fold difference (higher IC50 / lower potency) relative to 14a” value worked out at 10 fold.

Regarding `Nc1ccc(Nc2ccc(O)c(C(=O)NCC(=O)O)n2)nc1` [14d, 6-(((5-Aminopyridin-2-yl)amino)-3-hydroxypicolinoyl)glycine], the half-inhibitory concentration (IC50) on KDM3A was 51.3 µM; on KDM6B it was more than 100 µM; at KDM5B it was 39.8 µM; on KDM2A, 81 µM; on FTO, 0.8 ± 0.7 µM.

The molecule `O=C(O)CNC(=O)c1nc(Nc2ccc([N+](=O)[O-])cc2)ccc1O` [14a, 3-Hydroxy-6-(((4-nitrophenyl)amino)picolinoyl)glycine] displayed a melting point of more than 300 °C. Also, on KDM3A, the IC50 was more than 100 µM. Also, the IC50 at KDM6B was 19.6 µM. Further, the half-maximal inhibitory concentration (IC50) on KDM5B came to 46.3 µM. Moreover, the half-maximal inhibitory concentration (IC50) at KDM2A was more than 100 µM.
